{
  "source": "patent US8637493B2",
  "about": "“Methods for treating glioblastoma” (University of Massachusetts, priority 2009, dated 2014)",
  "key": {"U373NS": {"test_system": "U373NS", "test": "Neurosphere formation / recovery / secondary neurosphere assay, U373NS", "format": "cell-based, human", "description": "(§1) The effect of chemotherapy on neurosphere formation was assayed in glioma neurosphere cultures. Cultures are treated with a single dose of the agent, e.g., TMZ and multiple doses of a GSI, e.g., DAPT to inhibit the Notch pathway. After the Treatment phase, the number of initial spheres (counted about 7 days after TMZ treatment) represents the number of proliferating CSC/progenitors (FIG. 1 for schematic). Recovery (counted 14 days after TMZ treatment) includes enlargement of the initial spheres and new spheres formed when CSC/progenitor cells quiescent as a result of chemotherapy resume cell proliferation. […] The cells used included U87NS, a neurosphere culture converted to neurosphere growth in defined medium from U87MG (an old Swedish line that is grown in conventional serum conditions); GS7-2, GS8-26 and GS6-22 primary neurosphere cultures that were obtained from grade IV GBM patient tumor samples and AS5-15, which was obtained from a grade III anaplastic astrocytoma.\n(§2) To determine the effects of TMZ plus DAPT neurospheres, cells were plated as previously described (Mihaliak et al., Cancer Letts. 296, 168-177 (2010)). Immediately after plating, cells were treated with DMSO, DAPT-only, LY411,575 (LY)-only TMZ-only, TMZ+DAPT or TMZ+LY. The initial neurospheres were counted on day 7 for the converted cell lines and on day 10 for the slower growing primary lines. Neurosphere recovery was measured on day 14 or 20. The neurospheres were dissociated, re-plated and secondary neurosphere formation was measured on day 21 or 30.\n(§3) Neurosphere cultures were dissociated to single cell suspensions by pH dissociation followed by filtration through 40 μm screens. For the neurosphere assay, 3,000 cells/ml of defined medium were seeded in 6-well plates. Immediately after plating, cells were treated with DMSO (Research Organics, Cleveland, Ohio) carrier control, TMZ-only, DAPT-only, or TMZ+DAPT. Additional DAPT was added on days 2 and 4. Neurospheres consisting of 10 or more cells were counted under a light microscope on day 7 for the converted cell lines. Primary lines have a slightly longer doubling time and were counted on day 10. After counting the neurospheres from the initial treatment, 2 ml of fresh defined medium was added to each well. DAPT was also added once more to the DAPT-only and TMZ+DAPT samples, and the cells were incubated for an additional 7 or 10 days. Neurospheres from the recovery period were counted on day 14 or day 20. To analyze secondary neurosphere formation, cells were collected, pelleted and dissociated to a single cell suspension by the pH method. Cells from each well were re-seeded into 6-well plates with 2 ml of defined medium. The number of secondary neurospheres formed by converted cell lines and primary cultures were counted on day 21 or day 30, respectively. All recovery assays were repeated with a minimum of 6 replicate sets of time points."}, "U87NS": {"test_system": "U87NS", "test": "Neurosphere formation / recovery / secondary neurosphere assay, U87NS", "format": "cell-based, human", "settings": "LY alone at various concentrations, counted after 7 days", "description": "as §1, §2, §3\nFor the samples labeled “PRE-treat”, a single dose of DAPT was administered when the cells were plated, and then TMZ was added to the medium 24 hours later. For the “CO-treat” samples, single doses of TMZ and DART were added simultaneously when the cells were plated. Finally, samples labeled “POST-treat” were treated with TMZ, and then DAPT was added 24 hours later."}},
  "data": [
    {"compound": "C[C@H](NC(=O)[C@@H](O)c1cc(F)cc(F)c1)C(=O)N[C@@H]1C(=O)N(C)c2ccccc2-c2ccccc21", "note": "[LY, N-2((2S)-2-(3,5-difluorophenyl)-2-hydroxyethanoyl)-N1-((7S)-5-methyl-6-oxo-6,7-dihydro-5H-dibenzo[b,d]azepin-7-yl)-L-alaninamide]", "values": [
      {"measurement": "neurosphere formation", "setting": "U373NS; LY alone at various concentrations, counted after 7 days", "value": "dose-dependent decrease"},
      {"measurement": "secondary neurosphere formation compared to DMSO treated samples", "setting": "U373NS; LY-only, secondary formation still robust", "value": "decreased"},
      {"measurement": "neurosphere formation", "setting": "U87NS", "value": "dose-dependent decrease"}
    ]}
  ]
}
